The source of these data is PMC2174402 (Environmental Health Perspectives, 2007).

One data set concerns CHO cells. In words: Cytotoxicity in the AR assay. It is filed as cell-based, Chinese hamster. Conditions: for Cytotox (M), AR assay: pSVAR13.
Another data set relates to JEG-3 cells. Nature of the data set: Cell cytotoxicity for the aromatase assay. It counts as cell-based, human.
The subject of another data set is Hepa1.12cR cells. In words: Cell cytotoxicity / proliferation for the AhR-CALUX assay.
For a further data set, the target named is T1, aromatase (CYP19) (Homo sapiens, UniProt P11511).
T1 sequence (P11511 1-503): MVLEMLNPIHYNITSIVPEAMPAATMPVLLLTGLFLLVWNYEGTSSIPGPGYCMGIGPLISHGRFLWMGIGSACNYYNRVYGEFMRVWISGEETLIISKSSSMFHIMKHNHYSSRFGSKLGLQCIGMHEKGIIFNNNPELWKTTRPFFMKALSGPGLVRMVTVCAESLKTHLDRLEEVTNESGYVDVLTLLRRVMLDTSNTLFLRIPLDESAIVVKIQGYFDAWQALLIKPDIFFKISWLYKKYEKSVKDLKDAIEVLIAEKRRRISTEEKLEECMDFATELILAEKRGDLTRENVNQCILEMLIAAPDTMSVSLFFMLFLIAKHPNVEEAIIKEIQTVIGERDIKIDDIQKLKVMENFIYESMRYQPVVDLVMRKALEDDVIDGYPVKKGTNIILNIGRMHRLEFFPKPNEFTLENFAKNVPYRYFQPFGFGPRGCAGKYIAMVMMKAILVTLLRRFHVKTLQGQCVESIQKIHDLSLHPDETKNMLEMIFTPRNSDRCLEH
Nature of the data set: Aromatase activity in JEG-3 choriocarcinoma cells. Conditions: for LOEC, aromatase (inhibited activity) / MOEC, aromatase (inhibited activity) / concentration (range) of significant aromatase inhibition: 18 hr exposure; for Maximum % (maximum down-regulation / maximum inhibition, MI), aromatase: control 10 nM 4-AD set to 100%, at the MOEC. It counts as cell-based.

For data set [1], the target named is aryl hydrocarbon receptor (AhR) (Mus musculus, UniProt P30561). Nature of the data set: AhR-CALUX.
Sequence of aryl hydrocarbon receptor (AhR) (P30561 10-805 limits assumed): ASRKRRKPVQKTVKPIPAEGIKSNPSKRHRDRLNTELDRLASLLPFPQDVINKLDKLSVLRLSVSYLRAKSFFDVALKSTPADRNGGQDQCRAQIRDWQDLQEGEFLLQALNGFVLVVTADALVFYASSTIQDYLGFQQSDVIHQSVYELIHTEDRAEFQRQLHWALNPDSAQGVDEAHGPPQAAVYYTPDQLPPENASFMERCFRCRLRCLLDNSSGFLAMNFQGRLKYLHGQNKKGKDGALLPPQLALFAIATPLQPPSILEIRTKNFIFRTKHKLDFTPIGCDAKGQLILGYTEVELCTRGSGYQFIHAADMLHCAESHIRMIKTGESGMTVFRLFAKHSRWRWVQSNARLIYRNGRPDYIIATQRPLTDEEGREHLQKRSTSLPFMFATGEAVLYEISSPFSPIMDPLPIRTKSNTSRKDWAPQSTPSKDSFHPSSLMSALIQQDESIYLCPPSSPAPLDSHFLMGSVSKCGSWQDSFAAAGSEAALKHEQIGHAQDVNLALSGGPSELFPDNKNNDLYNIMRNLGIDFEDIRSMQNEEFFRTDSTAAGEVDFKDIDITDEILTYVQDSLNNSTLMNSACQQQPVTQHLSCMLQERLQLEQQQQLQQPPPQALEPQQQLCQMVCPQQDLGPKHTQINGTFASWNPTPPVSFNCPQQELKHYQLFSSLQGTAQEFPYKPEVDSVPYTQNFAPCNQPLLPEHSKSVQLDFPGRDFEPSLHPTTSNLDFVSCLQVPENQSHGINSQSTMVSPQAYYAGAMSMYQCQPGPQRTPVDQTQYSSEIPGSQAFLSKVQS
Sequence of aryl hydrocarbon receptor (AhR) (P53762 whole entry partner): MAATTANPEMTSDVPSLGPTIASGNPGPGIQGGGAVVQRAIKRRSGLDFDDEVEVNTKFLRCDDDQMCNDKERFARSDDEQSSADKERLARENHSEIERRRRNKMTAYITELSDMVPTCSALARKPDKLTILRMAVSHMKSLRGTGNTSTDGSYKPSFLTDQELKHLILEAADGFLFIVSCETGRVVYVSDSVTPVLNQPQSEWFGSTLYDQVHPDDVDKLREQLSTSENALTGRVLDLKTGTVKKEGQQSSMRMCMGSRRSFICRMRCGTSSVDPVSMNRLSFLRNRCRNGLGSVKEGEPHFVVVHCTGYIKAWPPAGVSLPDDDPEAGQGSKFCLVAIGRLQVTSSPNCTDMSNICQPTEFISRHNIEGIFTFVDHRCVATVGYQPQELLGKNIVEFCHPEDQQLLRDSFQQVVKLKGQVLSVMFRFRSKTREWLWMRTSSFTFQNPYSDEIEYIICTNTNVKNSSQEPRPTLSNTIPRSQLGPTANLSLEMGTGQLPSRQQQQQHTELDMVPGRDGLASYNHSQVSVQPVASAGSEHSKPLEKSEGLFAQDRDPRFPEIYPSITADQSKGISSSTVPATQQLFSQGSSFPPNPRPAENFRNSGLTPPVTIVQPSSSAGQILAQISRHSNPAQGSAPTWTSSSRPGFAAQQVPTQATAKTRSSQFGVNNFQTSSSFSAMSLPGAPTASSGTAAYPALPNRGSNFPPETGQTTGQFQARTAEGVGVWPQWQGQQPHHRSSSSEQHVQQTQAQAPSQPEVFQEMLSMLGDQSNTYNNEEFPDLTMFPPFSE
The target of data set [2] is T2, human estrogen receptor (ER) (Homo sapiens, UniProt P03372).
T2 sequence (P03372 1-595): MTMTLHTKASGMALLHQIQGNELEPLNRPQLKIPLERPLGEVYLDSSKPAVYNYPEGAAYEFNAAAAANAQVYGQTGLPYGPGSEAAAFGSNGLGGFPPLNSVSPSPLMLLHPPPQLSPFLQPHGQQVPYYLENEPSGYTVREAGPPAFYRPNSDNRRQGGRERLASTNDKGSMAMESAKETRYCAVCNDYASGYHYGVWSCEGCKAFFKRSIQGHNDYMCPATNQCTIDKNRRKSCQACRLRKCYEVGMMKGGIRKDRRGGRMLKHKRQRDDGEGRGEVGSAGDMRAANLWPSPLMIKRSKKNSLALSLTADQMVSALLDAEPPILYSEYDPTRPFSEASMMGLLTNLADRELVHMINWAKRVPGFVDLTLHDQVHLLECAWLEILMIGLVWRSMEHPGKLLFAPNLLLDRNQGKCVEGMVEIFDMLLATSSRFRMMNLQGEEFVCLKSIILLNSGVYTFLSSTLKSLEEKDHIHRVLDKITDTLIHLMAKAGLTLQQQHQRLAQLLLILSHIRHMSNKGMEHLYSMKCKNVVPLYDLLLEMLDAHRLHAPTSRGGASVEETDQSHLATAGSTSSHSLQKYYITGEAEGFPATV
In words: cell-based. It is filed as cell-based. Conditions: for LOEC (lowest effect concentration), ER / MOEC (maximal effect concentration), ER: 24 hr.

In data set [3] the target is T3, human androgen receptor (AR) (Homo sapiens, UniProt P10275).
T3 sequence (P10275 1-920): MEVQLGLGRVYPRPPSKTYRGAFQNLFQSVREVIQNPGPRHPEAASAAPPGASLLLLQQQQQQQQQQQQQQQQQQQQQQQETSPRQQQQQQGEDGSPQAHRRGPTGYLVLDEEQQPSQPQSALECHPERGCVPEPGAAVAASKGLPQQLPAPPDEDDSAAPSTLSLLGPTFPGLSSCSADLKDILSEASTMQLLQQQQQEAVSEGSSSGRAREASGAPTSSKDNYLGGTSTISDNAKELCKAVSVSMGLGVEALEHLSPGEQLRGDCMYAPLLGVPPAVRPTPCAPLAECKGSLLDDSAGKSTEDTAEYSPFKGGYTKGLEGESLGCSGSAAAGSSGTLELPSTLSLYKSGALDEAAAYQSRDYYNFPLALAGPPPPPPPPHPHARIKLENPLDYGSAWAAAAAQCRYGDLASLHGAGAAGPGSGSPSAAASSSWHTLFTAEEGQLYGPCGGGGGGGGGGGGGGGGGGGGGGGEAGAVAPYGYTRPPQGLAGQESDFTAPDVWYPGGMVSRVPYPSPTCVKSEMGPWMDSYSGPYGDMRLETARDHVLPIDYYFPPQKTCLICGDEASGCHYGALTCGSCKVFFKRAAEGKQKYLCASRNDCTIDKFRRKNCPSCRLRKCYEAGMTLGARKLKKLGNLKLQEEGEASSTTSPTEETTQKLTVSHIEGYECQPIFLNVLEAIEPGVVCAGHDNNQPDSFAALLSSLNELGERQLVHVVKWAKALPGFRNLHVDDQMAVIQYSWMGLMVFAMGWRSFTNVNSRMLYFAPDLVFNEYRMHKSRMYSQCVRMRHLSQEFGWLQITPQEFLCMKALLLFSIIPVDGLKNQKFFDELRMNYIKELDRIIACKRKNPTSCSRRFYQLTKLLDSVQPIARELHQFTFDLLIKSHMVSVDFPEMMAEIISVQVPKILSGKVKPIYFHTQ
In words: cell-based. It is filed as cell-based.

[4] abbreviates: chemical alone, Hepa1.12cR cells.
The mark [5] stands for this setting: co-exposure with 0.1 nM R1881, CHO cells.

Molecules are shown by their SMILES. pEC50, pIC50: −log10 of the molar value. “And” between values parts separate entries of the source, which are not always exact repeats. Identical values can stand only once. Like-named read-outs stand apart in the source and are kept apart here. Marks after values point to notes of the source that are not given here. Some results are limits rather than exact numbers.

On to `CCCCCCCCc1ccc(O)cc1` [nOP, 4-n-octylphenol], for which the “Cytotox (M), ER assay” value in the data set on MVLN cells was determined as 5e-05 M. Further, the “Cytotox (M), AR assay” value with CHO cells is > 2e-05 M. In addition, in the data set with JEG-3 cells, the “Cytotox (M), aromatase assay” value is reported as 10^−4 M. The “Cytotox (M), AhR assay” value in the data set on Hepa1.12cR cells is > 10^−4 M.
As usually defined, the pEC50 is −log10 of the EC50, conventionally taken in molar units. Take `CCCCCCCCCc1ccc(O)cc1` [nNP, 4-n-nonylphenol]: in the data set with MVLN cells, the “Cytotox (M), ER assay” value turned out to be 2.5e-05 M and the “concentration at which cytotoxicity was observed, ER assay” value was 25 µM. Moreover, in the data set on CHO cells, the “concentrations of cytotoxicity, AR assay” value was > 40 µM and the “Cytotox (M), AR assay” value was > 4e-05 M. In addition, at aromatase (CYP19) (JEG-3 cells), the “LOEC, aromatase (inhibited activity)” value came out at 1 nM; the “MOEC, aromatase (inhibited activity)” value was 10 µM; the “concentration (range) of significant aromatase inhibition” value was 10^−9–10^−5 M. Moreover, on aromatase (CYP19), the “Maximum % (maximum down-regulation / maximum inhibition, MI), aromatase” value is listed as 71%. Besides, in data set [1] (setting [4]), the “LOEC, AhR (increased activity)” value came out at 50 nM. Further, the “concentration of decreased TCDD-induced AhR activity” value in data set [1] (co-treatment with TCDD-EC50 (60 pM)) is on record as 10^−4 M. In data set [2], the pEC50 is 5.05 and the “concentration giving further increase of the 25 pM E2-induced activity level” value is 5 × 10^−6 M. Also, in data set [2] (chemical alone, MVLN cells), the “LOEC (lowest effect concentration), ER” value came out at 10 nM and the “MOEC (maximal effect concentration), ER” value worked out at 10 µM.
A word on the pIC50: it is −log10 of the IC50, conventionally taken in molar units. Higher therefore signals a small IC50. Consider `CC(C)(c1ccc(O)cc1)c1ccc(O)cc1` [BPA, Bisphenol A], for which, in the data set on CHO cells, the “concentrations of cytotoxicity, AR assay” value is > 40 µM and the “Cytotox (M), AR assay” value was > 4e-05 M. In addition, on aromatase (CYP19) (JEG-3 cells), the “LOEC, aromatase (inhibited activity)” value came out at 100000 nM; the “MOEC, aromatase (inhibited activity)” value was 100 µM; the “concentration (range) of significant aromatase inhibition” value is 10^−4 M. For the same compound, the “Maximum % (maximum down-regulation / maximum inhibition, MI), aromatase” value on aromatase (CYP19) stood at 59%. For the same compound, in data set [1], the “concentration of decreased TCDD-induced AhR activity” value is on record as 10^−4 M. The “concentration (range) of decreased AhR activity, alone” value in data set [1] (chemical alone) is reported as 5 × 10^−5 to 10^−4 M. For the same compound, the “LOEC, AhR (inhibited activity)” value in data set [1] (inhibited activity) is given as 5 × 10^−5 ^d M. For the same compound, the “Cytotox (M), AhR assay” value in the data set with Hepa1.12cR cells is > 10^−4 M. Besides, in data set [2], the “response on co-treatment with 25 pM E2 at 50 μM” value is “significant decreased response”. In data set [2] (chemical alone, MVLN cells), the “concentration range of ER-mediated (estrogenic) response” value is on record as 10^−8 to 5 × 10^−5 M; the “LOEC (lowest effect concentration), ER” value was found to be 100 nM; the “MOEC (maximal effect concentration), ER” value came to 10 µM. The compound also gave a pIC50 in data set [3] of 6.00. In addition, the “concentration range of significant antiandrogenic effect” value in data set [3] (co-exposure with 0.1 nM R1881) lay within 0.60 to 20 µM. Besides, in data set [3] (setting [5]), the “LOEC, AR (inhibited activity)” value came out at 600 nM and the “MOEC, AR (inhibited activity)” value amounted to 20 µM. Further, the “Maximum % (maximum down-regulation / maximum inhibition, MI), AR” value in data set [3] (control inducer 0.1 nM R1881 set to 100%) is reported as 90%.
On to `C[C@]12CCC(=O)C(O)=C1CC[C@@H]1[C@@H]2CC[C@]2(C)C(=O)CC[C@@H]12` [4-AOD, 4-androsten-4-ol-3,17-dione, reference compound], for which, on aromatase (CYP19), the pEC50 is 8.22; the pIC50 is 8.22; the “Maximum % (maximum down-regulation / maximum inhibition, MI), aromatase” value is given as 100%. At aromatase (CYP19) (JEG-3 cells), the “EC100 of aromatase inhibitor control” value stood at 10 µM; the “LOEC, aromatase (inhibited activity)” value stood at 1 nM; the “MOEC, aromatase (inhibited activity)” value is 100 µM. Besides, the “REP (relative potency), aromatase” value at aromatase (CYP19) (REP-aromatase = LOEC 4-AOD/LOEC test compound) came out at 1.
Consider `Clc1cc2c(cc1Cl)Oc1cc(Cl)c(Cl)cc1O2` [TCDD, 2,3,7,8-tetrachlorodibenzo-p-dioxin, reference compound], for which the “AhR-CALUX activity relative to solvent control” value in data set [1] (60 pM TCDD alone, 0.1% DMSO set to 1, mean ± SD) was 14.84 ± 6.26 and 13.89 ± 7.32. For the same compound, in data set [1] (setting [4]), the “LOEC, AhR (increased activity)” value worked out at 0.002 nM and the “MOEC, AhR (increased activity)” value stood at 10 nM. In addition, the “REP (relative potency), AhR” value in data set [1] (relative to TCDD) stood at 1.
